Measurements reported in patent publication US7829332B2, “Purines are self-renewal signals for neural stem cells, and purine receptor antagonists promote neuronal and glial differentiation therefrom” (Cornell Research Foundation, Inc., priority 2004, dated 2010).

Assays:
Type in all cases: cell-based, mouse
neural stem cells = test: BrdU incorporation assay (mitotic index); details: 4 hrs incubation
Procedure: (§1) For the BrdU incorporation assay, the cultures were incubated for 4 hrs in BrdU (Sigma, 10 μg/ml, 4 hrs), fixed and stained with rat monoclonal anti-BrdU (MAS250C, Harlan Sera-lab, Loughborough, UK; 1:200) and Cy3-conjugated goat anti-rat antibodies (Jackson ImmunoResearch, 1:300). Nuclei were visualized by Sytox (Molecular Probes, Inc.), and the mitotic index was calculated as the ratio of BrdU/Sytox positive nuclei. Limiting dilution analysis was performed as previously described (Keyoung et al., Nature Biotechnology 19:843-850 (2001); Uchida et al., Proc. Natl. Acad. Sci. 97:14720-14725 (2000), which are hereby incorporated by reference in their entirety).
Purinergic signaling has long-term effects on proliferation of numerous cell types, including rapidly replicating transformed cell lines (Burnstock, G., Arterioscler Thromb Vasc Biol 22:364-73 (2002); Michoud et al., Am J Respir Cell Mol Biol 27:732-8 (2002); Sauer et al., J Cell Sci 115:3265-73 (2002); Tu et al., Br J Pharmacol 129:1481-9 (2000), which are hereby incorporated by reference in their entirety). To better define the mitogenic effects of P2Y on neural progenitor cells, the mitogenic effects of ATP, its analogs, and its dephosphorylated metabolites were compared. To this end, BrdU incorporation by neural stem cells was quantified after 4 hrs incubation in each treatment.

neural progenitor cells = test: Calcium imaging (fluo-4/am) of Ca2+i responses in 1-2 day cultures
Procedure: Neuronal cultures were prepared from E16 mice and maintained as earlier described (Nedergaard, M., Science 263:1768-1771 (1994), which is hereby incorporated by reference in its entirety). Cytosine arabinoside (20 μM) was added at 48 hr to eliminate proliferating cells. Neural progenitor cells were isolated from E13 mice as previously described (Morshead et al., Neuron 13:1071-82 (1994); Reynolds et al., Science 255:1707-10 (1992), which are hereby incorporated by reference in their entirety). The forebrains were collected in a Ca/Mg-free Hank's buffered saline solution (HBSS) and dissociated in 0.25% trypsin. The cells were resuspended at 4×10^6 cells/ml in DMEM/F12/N2 containing 10 ng/ml bFGF and 10 ng/ml EGF (Sigma, St. Louis, Mo.). The cells were plated at 4 ml/dish into 100 mm suspension culture plates and incubated at 37° C. in 5% CO2. The cells were passaged 2 to 3 times before use.
To test the idea that purinergic signaling is restricted to undifferentiated neural precursor cells, Ca^2+ responses to ATP were first examined as a function of time after plating either neural stem cells or differentiated neurons. Cultured mouse cortical neurons in near-pure neuronal cultures were loaded with fluo-4/am and exposed to either ATP (100 μM) or K^+ (60 mM). […] The responses to ATP fell by day 3 and were absent 9 days after plating. […] By 30 hours after plating, MAP2-defined neurons expressed substantially less P2Y receptor-immunoreactivity than did neighboring, MAP2^− cells (FIG. 1C). By 5 days, P2Y-immunoreactivity was restricted to GFAP^+ astrocytes.
ATP-induced Ca^2+i increments were inhibited by both suramin (100 μM) and reactive blue (RB; 30 μM), two mechanistically-unrelated inhibitors of purinergic signaling (FIG. 1D).

neural spheres = test: Lineage potential by clonal expansion and immunostaining; details: 5 day exposure, then 7 days without inhibitors
Procedure: Cultures were stained for nestin (monoclonal clone Rat 401, IgG1, or rabbit antiserum, Chemicon, Temecula, Calif.; 1:2000), neuronal class III β-tubulin (monoclonal clone TuJ1, IgG2a, Covance, Philadelphia, Pa.; 1:500), MAP-2 (2a+2b) (monoclonal clone AP-20, ascites fluid, Sigma, St. Louis, Mo.; 1:500), Neuronal protein HuC/HuD (monoclonal 16A11, Molecular Probes, Eugene, Oreg.; 15 μg/ml), O4 (monoclonal IgM supernatant; O4 hybridoma, or GFAP (mouse clone GA5, or rabbit antiserum, Sigma; 1:500,), purinergic receptors P2Y1, P2Y2, P2Y4 (polyclonal, Alomone Labs, Jerusalem, Israel, 1:200), p27 (polyclonal, Chemicon, 1:2000), cyclins D1 and E (polyclonal, H-295 and M-20, respectively, Santa Cruz Biotechnology, Santa Cruz, Calif.; 1:100), Secondary antibodies were FITC-conjugated goat anti-mouse IgM (μ-chain specific, Sigma; 1:500), Cy3-conjugated goat-anti-rabbit IgG (H+ L) (1:200), Cy5-conjugated Goat-anti-mouse IgG (H+L) (both from Jackson ImmunoResearch, West Grove, Pa.; 1:100). Nuclei were counter-stained with Sytox Green or propidium iodide (Molecular Probes). P27, cyclin D and cyclin E FACS analyses were performed on an EPICS ELITE ESP flow cytometer/cell sorter (Beckman Coulter), as described (Deptala et al., Int J Oncol 15:861-71 (1999), which is hereby incorporated by reference in its entirety). […]

neural progenitors = test: Limiting dilution analysis of dissociated neurospheres; details: for minimum density at which cells remain viable and expand: low density cultures
Procedure: as §1
To assess the requirement of P2Y signaling in self-renewal, neurospheres were dissociated to low density cultures and limiting dilution analysis performed, in the presence or absence of either suramin or RB. […] Thus, purinergic receptor activation was required not only for continued proliferation of neural progenitors, but also for survival at low plating densities.

neurospheres = test: Flow cytometry of S-phase fraction and P27 expression; details: for P27 expression: suramin 300 μM, RB 40 μM (FIG. 3D); for fraction of cells in S-phase: treated cultures, untreated control 16.4%±1.8%, p<0.001
Procedure: Cultures were stained for nestin (monoclonal clone Rat 401, IgG1, or rabbit antiserum, Chemicon, Temecula, Calif.; 1:2000), neuronal class III β-tubulin (monoclonal clone TuJ1, IgG2a, Covance, Philadelphia, Pa.; 1:500), MAP-2 (2a+2b) (monoclonal clone AP-20, ascites fluid, Sigma, St. Louis, Mo.; 1:500), Neuronal protein HuC/HuD (monoclonal 16A11, Molecular Probes, Eugene, Oreg.; 15 μg/ml), O4 (monoclonal IgM supernatant; O4 hybridoma, or GFAP (mouse clone GA5, or rabbit antiserum, Sigma; 1:500,), purinergic receptors P2Y1, P2Y2, P2Y4 (polyclonal, Alomone Labs, Jerusalem, Israel, 1:200), p27 (polyclonal, Chemicon, 1:2000), cyclins D1 and E (polyclonal, H-295 and M-20, respectively, Santa Cruz Biotechnology, Santa Cruz, Calif.; 1:100), Secondary antibodies were FITC-conjugated goat anti-mouse IgM (μ-chain specific, Sigma; 1:500), Cy3-conjugated goat-anti-rabbit IgG (H+ L) (1:200), Cy5-conjugated Goat-anti-mouse IgG (H+L) (both from Jackson ImmunoResearch, West Grove, Pa.; 1:100). Nuclei were counter-stained with Sytox Green or propidium iodide (Molecular Probes). P27, cyclin D and cyclin E FACS analyses were performed on an EPICS ELITE ESP flow cytometer/cell sorter (Beckman Coulter), as described (Deptala et al., Int J Oncol 15:861-71 (1999), which is hereby incorporated by reference in its entirety). The analysis of ectonucleotidase activity was adapted from Braun et al., “Expression of the Ecto-ATPase NTPDase2 in the Germinal Zones of the Developing and Adult Rat Brain,” Eur. J. Neurosci. 17:1355-64 (2003), which is hereby incorporated by reference in its entirety. Cryostat sections from paraformaldehyde-perfused animals were utilized. All experiments used either inosine diphosphate (IDP), adenosine diphosphate (ADP), or adenosine triphosphate (ATP) as substrate (1 mM), whereas substrate was omitted from controls.
The inhibition of proliferation afforded by suramin and RB was reversible. The percentage of cells in S-phase recovered by 50% at 8 h and by 80% at 24 hr after wash-out of the drugs.

Row | SMILES | proliferation (BrdU incorporation) (neural stem cells) | inhibition of ATP-induced Ca2+i increments (neural progenitor cells; reactive blue 30 μM) | lineage potential of exposed progenitor cells (neural spheres) | minimum density at which cells remain viable and expand (neural progenitors) | survival at low plating densities (neural progenitors) | P27 expression (neurospheres) | fraction of cells in S-phase (neurospheres) [%] | inhibition of ATP-induced Ca2+i increments (neural progenitor cells; suramin 100 μM)
1 | Nc1c(S(=O)(=O)O)cc(Nc2ccc(Nc3nc(Cl)nc(Nc4cccc(S(=O)(=O)O)c4)n3)c(S(=O)(=O)O)c2)c2c1C(=O)c1ccccc1C2=O [RB, reactive blue 2] | inhibited proliferation in a dose-dependent manner | inhibited | neither suramin nor RB restricted the lineage potential | increased the minimum density | died by 5 days in vitro | rose more strongly | 5.7±0.3 | –
2 | Cc1ccc(C(=O)Nc2ccc(S(=O)(=O)O)c3cc(S(=O)(=O)O)cc(S(=O)(=O)O)c23)cc1NC(=O)c1cccc(NC(=O)Nc2cccc(C(=O)Nc3cc(C(=O)Nc4ccc(S(=O)(=O)O)c5cc(S(=O)(=O)O)cc(S(=O)(=O)O)c45)ccc3C)c2)c1 [suramin] | inhibited proliferation in a dose-dependent manner | – | neither suramin nor RB restricted the lineage potential | increased the minimum density | died by 5 days in vitro | increase in the tumor suppressor P27 | 8.4±2.3 | inhibited
